# Results from patent publication US7807882B2, “Herbicide-resistant sunflower plants, polynucleotides encoding herbicide-resistant acetohydroxyacid synthase large subunit proteins, and methods of use” (priority 2004, dated 2010).
# Legend:
# Test in all cases: Field trial, sulfonylurea tolerance (herbicide injury ratings), Balcarce
# Type in all cases: in vivo, Helianthus annuus
# [1] = tested on: HA89 (wild-type) sunflower line; settings: No injury = 0
# Excerpt: (§1) To evaluate the tolerance of MUT28 sunflower plants to sulfonylurea herbicides, HA89 (wild-type), MUT28, IMISUN-1, and SURES-1 sunflower lines were planted outdoors in Balcarce, Argentina during the growing season in an RCBD field trial with two replications to evaluate the tolerance of MUT28 plants to the sulfonylurea herbicide thifensulfuron (TFS) at 1× and 2× rates. The 1× rates for TFS is 4.4 g a.i./ha.
# [2] = tested on: IMISUN-1 sunflower line; settings: line IMISUN-1, No injury = 0
# Excerpt: as §1
# [3] = tested on: MUT28 sunflower line; settings: No injury = 0
# Excerpt: as §1
# [4] = tested on: SURES-1 sunflower line; settings: line SURES-1, No injury = 0
# Excerpt: as §1
smiles,measurement,setting,value
COc1nc(C)nc(NC(=O)NS(=O)(=O)c2ccsc2C(=O)O)n1 [thifensulfuron],Herbicide Injury Ratings,[1]; rate 1× (4.4 g a.i./ha),75
same,Herbicide Injury Ratings,[1]; rate 2× (1× is 4.4 g a.i./ha),75
same,Herbicide Injury Ratings,[2]; rate 1× (4.4 g a.i./ha),20
same,Herbicide Injury Ratings,[2]; rate 2× (1× is 4.4 g a.i./ha),75
same,Herbicide Injury Ratings,[3]; rate 1× (4.4 g a.i./ha),30
same,Herbicide Injury Ratings,[3]; rate 2× (1× is 4.4 g a.i./ha),42
same,Herbicide Injury Ratings,[4]; rate 1× (4.4 g a.i./ha),5
same,Herbicide Injury Ratings,[4]; rate 2× (1× is 4.4 g a.i./ha),3
